In ChEMBL document CHEMBL1697731, “Cheminformatics analysis of assertions mined from literature that describe drug-induced liver injury in different species” (Chem Res Toxicol, 2010):

Tests used:
[1] = tested on: Hepatotoxicity; experiment: Literature-mined compound from Fourches et al multi-species drug-induced liver injury (DILI) dataset, effect in humans; conditions: human
[2] = tested on: Hepatotoxicity; experiment: Literature-mined compound from Fourches et al multi-species drug-induced liver injury (DILI) dataset, effect in non-rodents
[3] = tested on: Hepatotoxicity; experiment: Literature-mined compound from Fourches et al multi-species drug-induced liver injury (DILI) dataset, effect in rodents; conditions: rodentia

SMILES: CCOC(=O)CCC(=O)O[C@H]1[C@H](O[C@@H]2[C@@H](C)[C@H](O[C@H]3C[C@@](C)(OC)[C@@H](O)[C@H](C)O3)[C@@H](C)C(=O)O[C@H](CC)[C@@](C)(O)[C@H](O)[C@@H](C)C(=O)[C@H](C)C[C@@]2(C)O)O[C@H](C)C[C@@H]1N(C)C [ERYTHROMYCIN ETHYLSUCCINATE]
- Hepatotoxicity [1]: drug-induced liver injury reported
- Hepatotoxicity [2]: no drug-induced liver injury reported
- Hepatotoxicity [3]: no drug-induced liver injury reported

SMILES: CC[C@H]1OC(=O)[C@H](C)[C@@H](O[C@H]2C[C@@](C)(OC)[C@@H](O)[C@H](C)O2)[C@H](C)[C@@H](O[C@@H]2O[C@H](C)C[C@H](N(C)C)[C@H]2O)[C@](C)(O)C[C@@H](C)C(=O)[C@H](C)[C@@H](O)[C@]1(C)O.O=C(O)[C@H](O)[C@@H](O)[C@H](O[C@@H]1O[C@H](CO)[C@H](O)[C@H](O)[C@H]1O)[C@H](O)CO [ERYTHROMYCIN LACTOBIONATE]
- Hepatotoxicity [1]: drug-induced liver injury reported
- Hepatotoxicity [2]: no drug-induced liver injury reported
- Hepatotoxicity [3]: no drug-induced liver injury reported

SMILES: CCCCCCCCCCCCCCCCCC(=O)O.CC[C@H]1OC(=O)[C@H](C)[C@@H](O[C@H]2C[C@@](C)(OC)[C@@H](O)[C@H](C)O2)[C@H](C)[C@@H](O[C@@H]2O[C@H](C)C[C@H](N(C)C)[C@H]2O)[C@](C)(O)C[C@@H](C)C(=O)[C@H](C)[C@@H](O)[C@]1(C)O [ERYTHROMYCIN STEARATE]
- Hepatotoxicity [1]: drug-induced liver injury reported
- Hepatotoxicity [2]: no drug-induced liver injury reported
- Hepatotoxicity [3]: no drug-induced liver injury reported

SMILES: CC[C@H]1OC(=O)[C@H](C)[C@@H](O[C@H]2C[C@@](C)(OC)[C@@H](O)[C@H](C)O2)[C@H](C)[C@@H](O[C@@H]2O[C@H](C)C[C@H](N(C)C)[C@H]2O)[C@](C)(O)C[C@@H](C)C(=O)[C@H](C)[C@@H](O)[C@]1(C)O [ERYTHROMYCIN]
- Hepatotoxicity [1]: drug-induced liver injury reported
- Hepatotoxicity [2]: no drug-induced liver injury reported
- Hepatotoxicity [3]: drug-induced liver injury reported

SMILES: COc1ccc2nc([S@@+]([O-])Cc3ncc(C)c(OC)c3C)[nH]c2c1 [ESOMEPRAZOLE]
- Hepatotoxicity [1]: drug-induced liver injury reported
- Hepatotoxicity [2]: no drug-induced liver injury reported
- Hepatotoxicity [3]: no drug-induced liver injury reported

SMILES: Clc1ccc2c(c1)C(c1ccccc1)=NCc1nncn1-2 [ESTAZOLAM]
- Hepatotoxicity [1]: no drug-induced liver injury reported
- Hepatotoxicity [2]: no drug-induced liver injury reported
- Hepatotoxicity [3]: drug-induced liver injury reported

SMILES: CCCCC(=O)O[C@H]1CC[C@H]2[C@@H]3CCc4cc(O)ccc4[C@H]3CC[C@]12C [ESTRADIOL VALERATE]
- Hepatotoxicity [1]: no drug-induced liver injury reported
- Hepatotoxicity [2]: no drug-induced liver injury reported
- Hepatotoxicity [3]: drug-induced liver injury reported

SMILES: C[C@]12CC[C@@H]3c4ccc(O)cc4CC[C@H]3[C@@H]1CC[C@@H]2O [ESTRADIOL]
- Hepatotoxicity [1]: drug-induced liver injury reported
- Hepatotoxicity [2]: drug-induced liver injury reported
- Hepatotoxicity [3]: drug-induced liver injury reported

SMILES: C[C@]12CC[C@@H]3c4ccc(OC(=O)N(CCCl)CCCl)cc4CC[C@H]3[C@@H]1CC[C@@H]2O [ESTRAMUSTINE]
- Hepatotoxicity [1]: drug-induced liver injury reported
- Hepatotoxicity [2]: no drug-induced liver injury reported
- Hepatotoxicity [3]: no drug-induced liver injury reported

SMILES: C[C@]12CC[C@@H]3c4ccc(O)cc4CC[C@H]3[C@@H]1C[C@@H](O)[C@@H]2O [ESTRIOL]
- Hepatotoxicity [1]: no drug-induced liver injury reported
- Hepatotoxicity [2]: no drug-induced liver injury reported
- Hepatotoxicity [3]: drug-induced liver injury reported

SMILES: C[C@]12CC[C@@H]3c4ccc(OS(=O)(=O)O)cc4CC[C@H]3[C@@H]1CCC2=O [ESTRONE SULFURIC ACID]
- Hepatotoxicity [1]: no drug-induced liver injury reported
- Hepatotoxicity [2]: no drug-induced liver injury reported
- Hepatotoxicity [3]: drug-induced liver injury reported
